Measurements: patent publication US20090298799A1, “Methods of Treating Osteoporosis and Secondary Hyperparathyroidism Using 20-Methyl, Gemini Vitamin D3 Compounds” (BioXell S.p.A., priority 2005, published 2009)

Legend:
[1] = Determination of maximum tolerated dose (MTD) without hypercalcemia; set-up: species or system mice; conditions: female, C57BL/6, mouse, in vivo, po; p.o. daily for four days; highest dose without hypercalcemia (serum calcium>10.7 mg/dl)
Method: The maximum tolerated dose of the vitamin D3 compounds of the invention were determined in eight week-old female C57BL/6 mice (3 mice/group) dosed orally (0.1 ml/mouse) with various concentrations of Vitamin D3 analogs daily for four days. Analogs were formulated in miglyol for a final concentration of 10, 30, 100 and 300 μg/kg when given at 0.1 ml/mouse p.o. daily. Blood for serum calcium assay was drawn by tail bleed on day five, the final day of the study. Serum calcium levels were determined using a colormetric assay (Sigma Diagnostics, procedure no. 597). The highest dose of analog tolerated without inducing hypercalcemia (serum calcium>10.7 mg/dl) was taken as the maximum tolerated does (MTD).

OVX rats = assay: Osteoporosis, early curative treatment in 3 month old OVX rats; conditions: for Tibia (μCT) increased over OVX controls / vertebrae (L5) increase over OVX control rats: 5/7 days for 3 weeks; for efficacy compared with calcitriol: 3 month old OVX rats
Method: Three-month old Sprague Dawley female rats were purchased from CERJ or Charles River, France. Rats underwent bilateral ovariectomy (OVX) or sham-operation (Sham) under anesthesia with intraperitoneal ketamine hydrochloride (50 mg/kg BW). The success of ovariectomy was evidenced at necropsy by weighing the uterus and visualizing the absence of ovarian tissue.
Throughout the whole experiment, rats were housed at 22±2° C. with a 12 h:12 h light-dark cycle. The animals were pair-fed a standard diet (Safe, 0.6% P, 0.8% Ca) and received Eau de Volvic ad libitum.
The treatment started 3 weeks post-ovariectomy. Compounds were firstly dissolved in ethanol (1 mg/ml). The other dilutions were done in Miglyol 812N. Compounds or vehicle (sham, OVX control rats) were given by daily oral gavage (5 ml/kg), 5/7 days for 3 weeks. […] Before the beginning of treatment, groups of sham and OVX rats were sacrificed to serve as basal controls. Ten and three days before sacrifice, rats were given subcutaneous injections of calcein (10 ml/kg, Sigma) to determine dynamic changes in bone tissue. The day before sacrifice, the rats were fasted and housed in metabolic cages to collect overnight urines.
At necropsy, right long bones were removed and fixed in 70% ethanol for further μCT (tibia and femur) and histomorphometry (tibia) analysis. The whole left legs were collected for pQCT analysis. The fourth and fifth lumbar vertebrae were dissected for DXA analysis. Excised tibias were scanned by a μCT machine (Scanco Medical) with software version 3.1 for a 2D-evaluation. The scans started at a distance of 1 mm of the reference line in the proximal tibia metaphysis. Five 0.5 mm-spaced slices were analyzed. The slice thickness was 20-30 μm. Bone volume (BV/TV) and trabeculae number (TbN) and thickness (TbTh) were assessed. Excised tibias were scanned by a pQCT machine (Stratec XCT Research SA+) with software version 5.4 to assess trabecular and cortical Bone Mineral Density (BMD) of proximal tibia metaphysis. For analysis of trabecular bone, the distance between the reference line and the first measurement line was 3 mm. Three other lines separated by 1 mm were analyzed. The cortical BMD was analyzed at 20 mm from the reference line. The voxel size was 0.10 mm. The peel mode used was 20/50. The BMD of excised fourth (L4) and fifth (L5) lumbar vertebrae were scanned by a DXA machine (Hologic QDR 4500) with software optimized for small animal studies. The regional high-resolution software selected a thin X-ray aperture. The large region was 68-71 and the narrow one was 35-21 to assess the body of the vertebrae of L4 and L5.
Left tibia from each rat was removed and dissected free of adjacent tissues. The bones were fixed in 70% ethanol, dehydrated in graded concentrations of ethanol, defatted in xylene, then embedded without decalcification in methyl methacrylate. Five μm-thick sections were made and stained with toluidine blue and cyanin solochrome and used for structural and cellular parameters evaluation. Ten μm-thick sections remained unstained for florescence microscopy observations. Structural and dynamic parameters were measured in the secondary spongiosa of the proximal tibial metaphysis situated about 1 mm distal from the growth plate-epiphyseal junction. Structural parameters, i.e. trabecular bone volume BV/TV (%), trabecular thickness (μm), connections and number, as well as cellular parameters (osteoblast, osteoid surfaces and osteoclast number), and dynamic parameters (mineralizing surface, mineral apposition rate, bone formation rate) were evaluated.
Osteocalcin (IRMA kit, Immutopics), DPyr (Metra DPD EIA kit), CTx (Ratlaps ELISA, Nordic, Bioscience Diagnostics) Ca, P, creatinin (Cobas Mira analyser) and rat PTH (Immutopics) were assessed in serum or urine material according to the manufacturer's instructions.

nephrectomized rats = assay: Secondary hyperparathyroidism, 5/6 nephrectomized (uremic) rats; type: in vivo, Sprague Dawley rats; conditions: for efficacy in PTH suppression and bone porosity / results compared to Zemplar in PTH suppression, CaxP, bone porosity and aortic calcification / safety profile compared to Zemplar: rat, in vivo; for bone protection / efficacy: rats with moderate renal failure
Method: Three month-old Sprague Dawley male rats (220-250 g BW) were purchased from CERJ, France, Rats were ⅚ nephrectomized (right kidney and ⅔ left kidney removed by surgery) or sham-operated (controls) by the supplier according to Prostrakan'procedures. The success of nephrectomy was evidenced at necropsy by visualizing the kidney tissue and measuring serum creatinin and urea. There were 10-12 rats in each group. […] Twenty days after operation, phosphate (Na2HPO4) was added to Eau de Volvic (6 g/l). Experimental procedures were approved by the Animal Ethics Committee of Prostrakan and by DDSV of Seine St Denis, France. The treatment started 82 days post-nephrectomy. Compounds were firstly dissolved in ethanol (1 mg/ml). The other dilutions were done in Miglyol 812N. […] Before the beginning of treatment, groups of control and nephrectomized rats were sacrificed to served as basal controls.
The whole left legs were collected for pQCT analysis. […] Five 0.5 mm-spaced slices were analyzed. The slide thickness was 20-30 μm. Bone volume (BV/TV) and trabecular number (TbN) and thickness (TbTh) were assessed. […] Three other lines separated by 1 mm were analyzed. […] The voxel size was 0.10 mm. The peel mode used was 20/50.
Ten μm-thick sections remained unstained for fluorescence microscopy observations.
To assess the calcification, aortas (6 cm-segment starting at arch), hearts and remaining kidney tissues were removed and fixed for histology analysis. Aortas segments were fixed in 3.7% formaldehyde and embedded in paraffin. Five μm cross sections were made and stained with a Von Kossa method for the calcification evaluation. The following grading of the calcification was used: moderate when less 50% of the aortic perimeter was calcified; severe when 100% of the aortic perimeter was calcified.
Data were expressed as mean±sem. […] The ANOVA test was used for all groups.

renin = assay: Renin inhibition in vitro
IFN-γ production = IFN-γ production by allogeneic T cell activation in the mixed leukocyte response (MLR); type: cell-based; conditions: 120 h; allogeneic PBMC from 2 donors, 5 days, ELISA
Method: Immature dendritic cells (DC) were prepared as described in Romani, N. et al., J. Immunol. Meth. 196.137. IFN-γ production by allogeneic T cell activation in the mixed leukocyte response (MLR) was determined as described in Penna, G., et al., J. Immunol., 164: 2405-2411 (2000).
Briefly, peripheral blood mononuclear cells (PBMC) were separated from buffy coats by Ficoll gradient and the same number (3×105) of allogeneic PBMC from 2 different donors were co-cultured in 96-well flat-bottom plates. After 5 days, IFN-γ production in the MLR assay was measured by ELISA and the results expressed as amount (nM) of test compound required to induce 50% inhibition of IFN-γ production (IC50) (Table 1).

Row | Structure (SMILES) | MTD at 4 days [1] [µg/kg] | efficacy compared with calcitriol (OVX rats) | peritrabecular fibrosis (tibia) (nephrectomized rats; 0.1 μg/kg) | efficacy in PTH suppression and bone porosity (nephrectomized rats) | results compared to Zemplar in PTH suppression, CaxP, bone porosity and aortic calcification (nephrectomized rats) | safety profile compared to Zemplar (nephrectomized rats) | bone protection (nephrectomized rats) | efficacy (nephrectomized rats) | inhibition of renin in vitro compared with calcitriol (renin) | results compared to Zemplar in the renin inhibition in vitro experiments (renin) | also measured
1 | C=C1/C(=C\C=C2/CCC[C@@]3(C)C2CCC3[C@](C)(CC#CC(O)(C(F)(F)F)C(F)(F)F)CCCC(C)(C)O)CC(O)C[C@@H]1O (stereo partly drawn) [Compound 1, (20S)-1,25-Dihydroxy-20-(5,5,5-trifluoro-4-hydroxy-4-trifluoromethyl-pent-2-ynyl)-cholecalciferol] | 0.3 | greater efficacy than calcitriol |  |  |  |  |  |  |  |  | Tibia (μCT) increased over OVX controls (OVX rats; 0.3 μg/kg oral): 90%; vertebrae (L5) increase over OVX control rats (OVX rats; 0.3 μg/kg oral): 8%; efficacy vs. calcitrol on travecular bone volume (OVX rats; 0.3 μg/kg, FIG. 4): higher; Tibia (μCT) increased over OVX controls (OVX rats; 1 μg/kg oral): 114%; vertebrae (L5) increase over OVX control rats (OVX rats; 1 μg/kg oral): 12%
2 | C=C1/C(=C\C=C2/CCC[C@@]3(C)C2CCC3[C@@](C)(CC#CC(O)(C(F)(F)F)C(F)(F)F)CCCC(C)(C)O)CC(O)C[C@@H]1O (stereo partly drawn) [Compound 4, (20R)-1,25-Dihydroxy-20-(5,5,5-trifluoro-4-hydroxy-4-trifluoromethyl-pent-2-ynyl)-cholecalciferol] |  |  | normal levels | demonstrated efficacy | greater or equal positive results compared to Zemplar | equal or more beneficial results | provided bone protection on the tibia and vertebrae | good efficacy | stronger inhibitition of renin in vitro over calcitriol | greater or equal positive results compared to Zemplar | osteoid thickening (tibia) (nephrectomized rats; 0.03 μg): normal levels; peritrabecular fibrosis (tibia) (nephrectomized rats; 0.03 μg/kg): one of nine rats; rats with mild porous levels of femur cortical porosity (nephrectomized rats; 0.03 μg/kg): four of nine rats; osteoid thickening (tibia) (nephrectomized rats; 0.1 μg/kg): one of nine rats; rats with mild porous levels of femur cortical porosity (nephrectomized rats; 0.1 μg/kg): one of nine rats
3 | C=C1/C(=C\C=C2/CCC[C@@]3(C)C2CCC3[C@](C)(C/C=C\C(O)(C(F)(F)F)C(F)(F)F)CCCC(C)(C)O)CC(O)C[C@@H]1O (stereo partly drawn) [Compound 2, (20S)-1,25-Dihydroxy-20-((2Z)-5,5,5-trifluoro-4-hydroxy-4-trifluoromethyl-pent-2-enyl)cholecalciferol] | 0.3 |  | one of ten rats | demonstrated efficacy | greater or equal positive results compared to Zemplar | equal or more beneficial results | provided bone protection on the tibia and vertebrae | good efficacy | stronger inhibitition of renin in vitro over calcitriol | greater or equal positive results compared to Zemplar | osteoid thickening (tibia) (nephrectomized rats; 1 μg/kg): normal levels; rats with mild porous levels of femur cortical porosity (nephrectomized rats; 1 μg/kg): four of ten rats; femur cortical porosity (nephrectomized rats; 3 μg/kg): nine rats demonstrated normal levels; osteoid thickening (tibia) (nephrectomized rats; 3 μg/kg): normal levels; peritrabecular fibrosis (tibia) (nephrectomized rats; 3 μg/kg): normal levels
4 | C=C1/C(=C\C=C2/CCC[C@@]3(C)C2CCC3[C@](C)(C/C=C/C(O)(C(F)(F)F)C(F)(F)F)CCCC(C)(C)O)CC(O)C[C@@H]1O (stereo partly drawn) [Compound 3, (20S)-1,25-Dihydroxy-20-[(2E)-5,5,5-trifluoro-4-hydroxy-4-trifluoromethyl-pent-2-enyl]-cholecalciferol] |  | greater efficacy than calcitriol |  |  |  |  |  |  |  |  | IC50 (IFN-γ production): 0.044 nM
5 | C=C1/C(=C\C=C2/CCC[C@@]3(C)C2CCC3[C@](C)(CC#CC(O)(C(F)(F)F)C(F)(F)F)CCCC(C)(C)O)CC(O)C[C@@H]1F (stereo partly drawn) [Compound 6, (20S)-1α-Fluoro-25-hydroxy-20-(5,5,5-trifluoro-4-hydroxy-4-trifluoromethyl-pent-2-ynyl)-cholecalciferol] | 100 |  |  |  |  |  |  |  |  |  | 
6 | C=C1/C(=C\C=C2/CCC[C@@]3(C)C2CCC3[C@@](C)(C/C=C/C(O)(C(F)(F)F)C(F)(F)F)CCCC(C)(C)O)CC(O)C[C@@H]1O (stereo partly drawn) [Compound 5, (20R)-1,25-Dihydroxy-20-[(2E)-5,5,5-trifluoro-4-hydroxy-4-trifluoromethyl-pent-2-enyl]-cholecalciferol] | 0.1 |  |  |  |  |  |  |  |  |  | 
